Measurements as given in US7947312B2, “Method of preparation and composition of a water soluble extract of the bioactive component of the plant species Uncaria for enhancing immune, anti-inflammatory, anti-tumor and DNA repair processes of warm blooded animals” (priority 2002, dated 2011).
Where a name gives a salt, the structure may show the parent alone.

Legend:
[1] = test system: mouse spleen cells; assay type: cell-based; conditions: for fraction of apoptotic T cells: Con A stimulated cultures (FIG. 4B); for induction of cell death in mitogen-stimulated spleen cells: mouse
From the text: Cells from parallel cultures were stained with trypan blue and the mean absolute number of viable and dead cells/ml from one out of three similar experiments are shown. […] Aliquots of the above cultures were stained with Annexin V and 7AAD and analyzed by flow cytometry. The results are presented as the mean number of Annexin V^+7AAD^− (apoptotic) and 7AAD^+ (dead) cells/ml±S.D. of duplicates from three experiments with similar results. Statistically significant differences (*p<0.05) and (**p<0.01) compared to the control cultures stimulated with Con A (FIG. 4B) or LPS (FIG. 4C) alone.
Cell cultures: Raji human Burkitt's lymphoma (CCL-86), Jurkat human acute T-cell leukemia (TIB-152), 70Z/3 mouse pre-B lymphocyte cell line (TIB-158), or mouse spleen cells were used in the experiments. The cells were cultured in RPMI medium (Life Technologies) supplemented with 10% FCS, 10 mM HEPES buffer, antibiotics, 50 μM 2-mercaptoethanol and 1 mM sodium pyruvate (all supplements from Life Technologies) at 37° C., 5% CO2. The number of Raji cells in duplicate cultures were determined with a Coulter Z1 cell counter (Beckman Coulter Inc, Fullerton, Calif., USA) three times each. The number of viable and dead cells were determined using trypan blue exclusion, by counting three independent samples from duplicate cultures. Cells were stained with 2 μg/ml 7-amino-actinomycin D (7AAD; Sigma-Aldrich, St Louis, Mo., USA) and with Annexin V (Molecular Probes) according to the manufacturer's protocol and the cells were defined as apoptotic (Annexin V+7AAD^−) or dead (7AAD^+) by flow cytometry. Spleen cells were polyclonally activated with 2.5 μg/ml concanavalin A (Con A; Amersham Pharmacia, Uppsala, Sweden) or 10 μg/ml lipopolysaccharide (LPS; Sigma-Aldrich). PMA (50 ng/ml) and ionomycin (1 μM) (both from Sigma-Aldrich) and pyrollidine dithiocarbamate (PDTC) (100 μM, EMD Bioscience Inc, Calbiochem, San Diego, Calif., USA) were used in some cultures as indicated. Proliferation was detected by measuring thymidine incorporation after a 4 hours pulse with 1 μCi ^3[H]-thymidine (Amersham Pharmacia).

[2] = test system: Raji human Burkitt's lymphoma; experiment: Raji cell proliferation (Coulter count, trypan blue); assay type: cell-based; conditions: 48 hours
Procedure: FIG. 3A illustrates Raji cells (2×10^5) that were cultured in the presence of indicated concentrations of C-MED-100®, QAA or QA. Growth rate was assayed after 48 hours by counting triplicate samples of duplicate cultures in a Coulter cell counter. Results from one representative experiment out of two performed is presented as mean values of cell/ml±standard deviation (S.D).
FIG. 3B illustrates triplicate samples of cells from duplicate parallel cultures stained with trypan blue at indicated times and counted.
(§1) Cell cultures: Raji human Burkitt's lymphoma (CCL-86), Jurkat human acute T-cell leukemia (TIB-152), 70Z/3 mouse pre-B lymphocyte cell line (TIB-158), or mouse spleen cells were used in the experiments. The cells were cultured in RPMI medium (Life Technologies) supplemented with 10% FCS, 10 mM HEPES buffer, antibiotics, 50 μM 2-mercaptoethanol and 1 mM sodium pyruvate (all supplements from Life Technologies) at 37° C., 5% CO2. The number of Raji cells in duplicate cultures were determined with a Coulter Z1 cell counter (Beckman Coulter Inc, Fullerton, Calif., USA) three times each. The number of viable and dead cells were determined using trypan blue exclusion, by counting three independent samples from duplicate cultures. […] Proliferation was detected by measuring thymidine incorporation after a 4 hours pulse with 1 μCi ^3[H]-thymidine (Amersham Pharmacia).

[3] = test system: Raji cells; experiment: Raji cell death and apoptosis (Annexin V / 7AAD flow cytometry); assay type: cell-based, human
From the text: Cells from the same cultures as in FIG. 3B were stained with Annexin V and 7AAD and analyzed by flow cytometry. The results are presented as the mean number of Annexin V^+ 7AAD^− (apoptotic) or 7AAD^+ (dead) cells±S.D. of duplicates from three experiments with similar results. Statistically significant differences (*p<0.05) and (**p<0.01), compared to Raji cells grown in medium (no drug).
as §1

[4] = test system: human HL-60 leukemic cells; experiment: In vitro growth inhibition by QA salts in cultured HL-60 cells, MTT, 72 hr (FIG. 8); assay type: cell-based; conditions: for in vitro cytotoxicity compared to C-MED-100 (FIG. 8): HL-60 cells
Procedure: QA was purchased from Sigma (>99%). QA salts were synthesized by neutralization with the appropriate base, i.e., NH4OH, NaOH, Ca(OH)2, Zn(OH)2, LiOH, KOH, lysine or histidine. Serial dilutions of test compounds were added to human HL-60 leukemic cells (0.05×10^6 cells/ml) in 96-well, flat bottomed microtiter plates to give final concentrations in the cultures up to 3000 μg/ml. The plates were incubated for 72 hr at 37 C, pulsed with 20 μl MTT (5 mg/ml) for 3 hr, and the color estimated spectrophotometrically at 540 nm as described previously. (Schweitzer, C M et al. Spectrophotometric determination of clonogenic capacity of leukemic cells in semisolid microtiter culture systems. Experimental Hematology 21: 573-578, 1993). IC50 values were calculated and compared based on the live/dead ratio of cells.

[5] = test system: NF-κB; experiment: NF-κB reporter (luciferase) in transfected Jurkat T cells; assay type: cell-based, human; conditions: PMA 50 ng/ml and ionomycin 1 μM, 2 h pre-culture, 6 h stimulation
Procedure: FIG. 5A illustrates Jurkat T that are cells transfected with a NF-κB reporter construct were pre-cultured with various concentrations of QA or C-MED-100® for two hours. PMA (50 ng/ml) and ionomycin (1 μM) were thereafter added and the cells incubated for another six hours. The mean induction of luciferase activity in triplicate cultures from one representative experiment out of four are shown (left panel). QA induced no cell death or apoptosis in Jurkat T cells at concentrations which inhibited NF-κB activity. Jurkat T cells were incubated with various concentrations of QA for 24 hours and thereafter stained with Annexin V and 7AAD before analysis by flow cytometry. The data are the mean values±S.D. of triplicates from one representative experiment out of two performed (right panel). Transient transfection and analysis of luciferase activity: The reporter construct containing NF-κB binding sequences and the luciferase reporter gene was previously described. […] The cells were lysed and aliquots of the lysates analyzed for luciferase activity using the Luciferase Assay System (Promega, Madison, Wis.). Luminiscence was quantitated in a MicroLumat LB 96 P luminometer (EG&G Berthold, Wallac […], Upplands Väsby, Sweden).

Row | Structure (SMILES) | fraction of apoptotic T cells [1] | induction of cell death in mitogen-stimulated spleen cells [1] | Raji cell proliferation [2] | induction of cell death in Raji cells [3] | in vitro cytotoxicity compared to C-MED-100 (FIG. 8) [4] | NF-κB activity (luciferase reporter) [5] | IC50 ([4]; Homo sapiens, HL-60) [µg/mL]
1 | O=C(O)C1(O)CC(O)C(O)C(O)C1 (stereo not shown) [QA, 1,3,4,5-tetrahydroxy-cyclohexanecarboxylic acid] | tendency to reduction (p=0.053) | neither C-MED-100®, QAA nor QA induce cell death | neither inhibited the proliferation of Raji tumor cells | do not induce cell death | much greater in vitro cytotoxicity than does C-MED-100® | in a dose dependent manner, inhibited the NF-κB activity | 
2 | O=C(O)[C@]1(O)C[C@@H](O)[C@@H](O)[C@H](O)C1 [QAA, quinic acid ammonium salt] | significantly reduced the fraction of apoptotic T cells | neither C-MED-100®, QAA nor QA induce cell death | inhibited cell proliferation in a dose dependent manner | do not induce cell death | in vitro cytotoxicity comparable to that of C-MED-100® | inhibited the NF-κB activity to a similar extent as QA | ≤ 1100
